Measurements as given in patent US6242445A, “Benzimidazole derivative” (Kureha Chemical Industry Co., Ltd., priority 1998, dated 2001).

Tested on: kidney disease model rats
Experiment: Action to kidney diseases, renal function indicatory values
Assay type: in vivo, Sprague-Dawley female rats
Conditions: for Creatinine clearance / blood urea nitrogen value / serum creatinine value / Creatinine / Blood urea nitrogen: 20 mg/kg/day, two weeks; for Creatinine / Blood urea nitrogen: serum; for Creatinine: control 2.0; for Blood urea nitrogen: control 100; for effects on renal function compared with reference substance: vs DuP753
Procedure: The kidney disease model rats were prepared by a ligature of branches of renal artery in accordance with a conventional method. Namely, the left hilum renalis of Sprague-Dawley female rats was exposed under anesthesia, and one of four secondary branches of the renal artery was left unligated, while the remaining three branches were ligated, respectively. After a week, the hilum renalis (artery, vein, and ureter) of the right kidney were further ligated to thereby prepare rats whose renal function was lowered to approximately 1/8 of the normal function. Each group consisted of eight rats. The drugs to be tested (20 mg/kg) were administered to each administering group, and only water was administered to a control group. Two days after the administration, the systolic blood pressure was measured by the tail cuff method using a blood pressure measuring apparatus (UR^5000; Ueda).
In this Example, an action to kidney diseases was evaluated on the basis of a renal function indicatory value.
Fifteen groups (8 rats per group) were prepared in a manner such that there was no major difference between the groups in the serum creatinine value and the blood urea nitrogen value indicating renal function. The rats in each group were allowed to freely take up food and water. […] To the rats in the control group, only water was forcibly orally administered every day. After two weeks, 0.2 ml of blood was collected from the carotid artery of the rats under anesthesia, and centrifuged to obtain serum. Using 25 μl of the serum, the serum creatinine (Scr) was measured by a creatinine analytical instrument (Beckman). Using 10 μl of the serum, the blood urea nitrogen (BUN) was measured by a BUN analytical instrument (Beckman). The creatinine clearance was evaluated as follows:
After the serum creatinine measurement, rats were placed in urinary metabolic cages for 24 hours to collect urine. A urinary creatine concentration (Ucr) was measured by a creatinine analytical instrument, and a total volume of urination (Uvol) was also measured. The creatinine clearance (CCr) was calculated by the following formula: [formula]
In the above formula, the unit of "Ucr" and "Scr" is "mg/ml" and the unit of "Uvol" is "ml".

SMILES | Creatinine clearance (control 0.22) | Creatinine clearance (vs control) | blood urea nitrogen value (vs control) | serum creatinine value (vs control) | Creatinine | Blood urea nitrogen | effects on renal function compared with reference substance
CCOc1nc2ccc(C(=O)N3CCOCC3)cc2n1Cc1ccc(C(=O)OCCN(C)C)cc1 [Compound No. 13, 2-ethoxy-1-[[4'-(2"-N,N-dimethylaminoethoxycarbonyl)phenyl]methyl]-1H-benzimidazole-6-carboxylic acid morpholide] | 0.35 mL/min | clearly improved | clearly became lower values | clearly became lower values | 1.5 mg/dL | 75 mg/dL | comparable to those of the reference substance
CCOc1nc2ccc(C(=O)N3CCCCC3)cc2n1Cc1ccc(C(=O)OCCN2CCOCC2)cc1 [Compound No. 57, 2-ethoxy-1-[[4'-(2"-morpholinoethoxycarbonyl)phenyl]methyl]-1H-benzimidazole-6-carboxylic acid piperidinamide] | 0.33 mL/min | clearly improved | clearly became lower values | clearly became lower values | 1.5 mg/dL | 72 mg/dL | comparable to those of the reference substance
